Measured values taken from ChEMBL document CHEMBL1201862, “PubChem BioAssay data set” (2004).
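Assay format: 96-well plates, 48-hour exposure. GI50 marks 50% less growth.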 Calls of active or inactive are those of the source. Rule as the data show it: active = GI50 up to about 1.1 µM and inactive = higher.

Columns and labels:
Assay in all cases: NCI anticancer screen, dose series, 48 h
786-0 = tested on: 786-0
A498 = tested on: A498
A549 = tested on: A549
ACHN = tested on: ACHN
CAKI-1 = tested on: CAKI-1
CCRF-CEM = tested on: CCRF-CEM
COLO 205 = tested on: COLO 205
DU-145 = tested on: DU-145
HCC 2998 = tested on: HCC 2998
HCT-116 = tested on: HCT-116
HL-60 = tested on: HL-60
HOP-62 = tested on: HOP-62
HOP-92 = tested on: HOP-92
HT-29 = tested on: HT-29
Hs-578T = tested on: Hs-578T
K562 = tested on: K562
KM12 = tested on: KM12
LOX IMVI = tested on: LOX IMVI
M14 = tested on: M14
MCF7 = tested on: MCF7
MDA-MB-231 = tested on: MDA-MB-231
MDA-MB-435 = tested on: MDA-MB-435
MDA-N = tested on: MDA-N
MOLT-4 = tested on: MOLT-4
NCI-H226 = tested on: NCI-H226
NCI-H23 = tested on: NCI-H23
NCI-H460 = tested on: NCI-H460
NCI/ADR-RES = tested on: NCI/ADR-RES
OVCAR-3 = tested on: OVCAR-3
OVCAR-4 = tested on: OVCAR-4
OVCAR-5 = tested on: OVCAR-5
OVCAR-8 = tested on: OVCAR-8
PC-3 = tested on: PC-3
RPMI-8226 = tested on: RPMI-8226
RXF 393 = tested on: RXF 393
SF-268 = tested on: SF-268
SF-295 = tested on: SF-295
SF-539 = tested on: SF-539
SK-MEL-28 = tested on: SK-MEL-28
SK-MEL-2 = tested on: SK-MEL-2
SK-MEL-5 = tested on: SK-MEL-5
SK-OV-3 = tested on: SK-OV-3
SN12C = tested on: SN12C
SNB-19 = tested on: SNB-19
SNB-75 = tested on: SNB-75
SR = tested on: SR
SW-620 = tested on: SW-620
T47D = tested on: T47D
TK-10 = tested on: TK-10
U-251 = tested on: U-251
UACC-257 = tested on: UACC-257
UACC-62 = tested on: UACC-62
UO-31 = tested on: UO-31
EKVX = tested on: EKVX
HCT-15 = tested on: HCT-15
IGROV-1 = tested on: IGROV-1
Malme-3M = tested on: Malme-3M
NCI-H522 = tested on: NCI-H522

Cc1csc2[n+]1C(=O)/C(=C\c1ccc([N+](=O)[O-])cc1)S2
GI50 (786-0): 24.2 µM (inactive) | GI50 (A498): 22.7 µM (inactive) | GI50 (A549): 27.4 µM (inactive) | GI50 (ACHN): 25.4 µM (inactive) | GI50 (CAKI-1): 25.2 µM (inactive) | GI50 (CCRF-CEM): 43.1 µM (inactive) | GI50 (COLO 205): 19.7 µM (inactive) | GI50 (DU-145): 39 µM (inactive) | GI50 (HCC 2998): 21.6 µM (inactive) | GI50 (HCT-116): 17.8 µM (inactive) | GI50 (HL-60): 26.2 µM (inactive) | GI50 (HOP-62): 28.5 µM (inactive) | GI50 (HOP-92): 19.4 µM (inactive) | GI50 (HT-29): 23.9 µM (inactive) | GI50 (Hs-578T): 25.6 µM (inactive) | GI50 (K562): 26.8 µM (inactive) | GI50 (KM12): 20.5 µM (inactive) | GI50 (LOX IMVI): 22.5 µM (inactive) | GI50 (M14): 34 µM (inactive) | GI50 (MCF7): 32.7 µM (inactive) | GI50 (MDA-MB-231): 27.3 µM (inactive) | GI50 (MDA-MB-435): 24.9 µM (inactive) | GI50 (MDA-N): 27.8 µM (inactive) | GI50 (MOLT-4): 29.5 µM (inactive) | GI50 (NCI-H226): 4.1 µM (inactive) | GI50 (NCI-H23): 18.7 µM (inactive) | GI50 (NCI-H460): 22.9 µM (inactive) | GI50 (NCI/ADR-RES): 25.4 µM (inactive) | GI50 (OVCAR-3): 15.3 µM (inactive) | GI50 (OVCAR-4): 42.3 µM (inactive) | GI50 (OVCAR-5): 47.2 µM (inactive) | GI50 (OVCAR-8): 22.4 µM (inactive) | GI50 (PC-3): 25.4 µM (inactive) | GI50 (RPMI-8226): 16.6 µM (inactive) | GI50 (RXF 393): 29 µM (inactive) | GI50 (SF-268): 20.3 µM (inactive) | GI50 (SF-295): 23.9 µM (inactive) | GI50 (SF-539): 36.1 µM (inactive) | GI50 (SK-MEL-28): 36.9 µM (inactive) | GI50 (SK-MEL-2): 25.6 µM (inactive) | GI50 (SK-MEL-5): 26.2 µM (inactive) | GI50 (SK-OV-3): 31.5 µM (inactive) | GI50 (SN12C): 37.4 µM (inactive) | GI50 (SNB-19): 25.4 µM (inactive) | GI50 (SNB-75): 20.3 µM (inactive) | GI50 (SR): 32.5 µM (inactive) | GI50 (SW-620): 40.8 µM (inactive) | GI50 (T47D): 21.2 µM (inactive) | GI50 (TK-10): 25.2 µM (inactive) | GI50 (U-251): 18.7 µM (inactive) | GI50 (UACC-257): 29.9 µM (inactive) | GI50 (UACC-62): 19.2 µM (inactive) | GI50 (UO-31): 15.3 µM (inactive)

Cc1ccc(/C=C2\CN(C)CC3=C2N=C(S)NC3c2ccc(C)cc2)cc1 (centres undefined)
GI50 (786-0): 21 µM (inactive) | GI50 (A498): > 100 µM (inactive) | GI50 (A549): 37.2 µM (inactive) | GI50 (ACHN): 40.7 µM (inactive) | GI50 (CAKI-1): > 100 µM (inactive) | GI50 (CCRF-CEM): 30.1 µM (inactive) | GI50 (COLO 205): 19 µM (inactive) | GI50 (DU-145): 34.4 µM (inactive) | GI50 (EKVX): 41.8 µM (inactive) | GI50 (HCC 2998): 41.5 µM (inactive) | GI50 (HCT-116): 21.8 µM (inactive) | GI50 (HCT-15): 31.8 µM | GI50 (HL-60): 28.2 µM (inactive) | GI50 (HOP-62): 40.5 µM (inactive) | GI50 (HOP-92): 18.2 µM (inactive) | GI50 (HT-29): 30.8 µM (inactive) | GI50 (Hs-578T): > 100 µM (inactive) | GI50 (IGROV-1): 47.2 µM (inactive) | GI50 (K562): 23.3 µM (inactive) | GI50 (KM12): 15.4 µM (inactive) | GI50 (LOX IMVI): 30.3 µM (inactive) | GI50 (M14): 27.3 µM (inactive) | GI50 (MCF7): 24.7 µM (inactive) | GI50 (MDA-MB-231): 34.8 µM (inactive) | GI50 (MDA-MB-435): 8.63 µM (inactive) | GI50 (MDA-N): 13.5 µM (inactive) | GI50 (Malme-3M): 47.3 µM (inactive) | GI50 (NCI-H226): 27.8 µM (inactive) | GI50 (NCI-H23): 39 µM (inactive) | GI50 (NCI-H460): 37.6 µM (inactive) | GI50 (NCI-H522): 39.5 µM (inactive) | GI50 (NCI/ADR-RES): 23.8 µM (inactive) | GI50 (OVCAR-3): 22.1 µM (inactive) | GI50 (OVCAR-4): 14 µM (inactive) | GI50 (OVCAR-5): > 100 µM (inactive) | GI50 (OVCAR-8): 25.5 µM (inactive) | GI50 (PC-3): 32.1 µM (inactive) | GI50 (RXF 393): 31.6 µM (inactive) | GI50 (SF-268): 44.4 µM (inactive) | GI50 (SF-295): 36.9 µM (inactive) | GI50 (SF-539): 39 µM (inactive) | GI50 (SK-MEL-28): > 100 µM (inactive) | GI50 (SK-MEL-2): 51.3 µM (inactive) | GI50 (SK-MEL-5): 25.7 µM (inactive) | GI50 (SK-OV-3): > 100 µM (inactive) | GI50 (SN12C): 32.7 µM (inactive) | GI50 (SNB-19): 73.5 µM (inactive) | GI50 (SNB-75): 10.2 µM (inactive) | GI50 (SR): < 0.01 µM (active) | GI50 (SW-620): 61.2 µM (inactive) | GI50 (T47D): > 100 µM (inactive) | GI50 (TK-10): 0.341 µM (active) | GI50 (U-251): 42.8 µM (inactive) | GI50 (UACC-257): 7 µM (inactive) | GI50 (UACC-62): 36 µM (inactive) | GI50 (UO-31): 55.1 µM (inactive)
